According to ChEMBL document CHEMBL4004874, “Synthesis and biological evaluation of C-3 aliphatic coumarins as vitamin K antagonists” (Bioorg Med Chem Lett, 2017):

What was measured:
[1] = system: Liver; experiment: Drug uptake in Sprague-Dawley rat liver assessed per gram of liver at 10 mg/kg, po after 24 hrs by HPLC-UV analysis; format: ADME, organism-based; conditions: in vivo
[2] = biological target: T1, Vitamin K epoxide reductase complex subunit 1 (Rattus norvegicus, UniProt Q6TEK4); experiment: Inhibition of VKORC1 in rat liver microsomes in presence of 0.003 to 0.2 mM vitamin K
T1 sequence (Q6TEK4 whole entry): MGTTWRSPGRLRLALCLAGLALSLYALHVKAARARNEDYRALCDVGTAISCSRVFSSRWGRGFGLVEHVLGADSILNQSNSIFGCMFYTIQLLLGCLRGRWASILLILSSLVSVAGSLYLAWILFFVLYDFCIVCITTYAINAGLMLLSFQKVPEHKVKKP

[3] = system: Rattus norvegicus; experiment: Anticoagulant activity in Sprague-Dawley rat assessed as increase of prothombin time at 10 mg/kg, po after 24 hrs relative to control; format: functional
[4] = system: Liver; experiment: Drug uptake in Sprague-Dawley rat liver assessed per gram of liver at 10 mg/kg, po after 72 hrs by HPLC-UV analysis; format: ADME, organism-based; conditions: in vivo
[5] = system: Rattus norvegicus; experiment: Anticoagulant activity in Sprague-Dawley rat assessed as increase of prothombin time at 10 mg/kg, po after 72 hrs relative to control; format: functional
[6] = system: Liver; experiment: Drug uptake in Sprague-Dawley rat liver assessed per gram of liver at 10 mg/kg, po by HPLC-UV analysis; format: ADME, organism-based; conditions: in vivo
[7] = system: Rattus norvegicus; experiment: Anticoagulant activity in Sprague-Dawley rat assessed as increase of prothombin time at 10 mg/kg, po after 7 hrs relative to control; format: functional
[8] = system: Liver; experiment: Drug uptake in Sprague-Dawley rat liver assessed per gram of liver at 10 mg/kg, po after 7 hrs by HPLC-UV analysis; format: ADME, organism-based; conditions: in vivo

Compound	Drug uptake [1]	Ki [2]	fold change (FC) [3]	further results
CCCCCCCCCCCCc1c(O)c2ccccc2oc1=O	0.7 µg/g	50 nM	1	
CCCCCCCCCCCc1c(O)c2ccccc2oc1=O		60 nM		
CCCCCCCCCCCC(c1ccc(Cl)cc1Cl)c1c(O)c2ccccc2oc1=O (stereo not given)	3.5 µg/g	90 nM	2	Drug uptake [4]: 0.7 µg/g; fold change (FC) [5]: 1
CCCCCCCCc1c(O)c2ccccc2oc1=O		260 nM		
CCCCCCCCCCCC(c1ccccc1)c1c(O)c2ccccc2oc1=O (stereo not given)	0.7 µg/g	30 nM	1	
CCCCCCCCCCCC(c1ccc(F)cc1)c1c(O)c2ccccc2oc1=O (stereo not given)	0.7 µg/g	20 nM	2	
CC(C)CCCC(C)CCCC(C)CCCC(C)CC(c1ccccc1)c1c(O)c2ccccc2oc1=O (stereo not given)		200 nM	1	Drug uptake ([6]; BLD = below limit of detection): Bld
CCCCCCCCCCc1c(O)c2ccccc2oc1=O		90 nM		
C/C(=C\Cc1c(O)c2ccccc2oc1=O)CCCC(C)CCCC(C)CCCC(C)C (stereo not given)		20 nM	1	Drug uptake [6]: 1.3 µg/g
CCCCCCc1c(O)c2ccccc2oc1=O		3900 nM		
CCCCCCCCCCCC(c1ccc(Cl)cc1)c1c(O)c2ccccc2oc1=O (stereo not given)	3 µg/g	20 nM	4	fold change (FC) [7]: 1; Drug uptake [4]: 1 µg/g; Drug uptake [8]: 13 µg; fold change (FC) [5]: 1
CC(C)CCCC(C)CCCC(C)CCCC(C)CCc1c(O)c2ccccc2oc1=O (stereo not given)		50 nM	1	Drug uptake ([6]; BLD = below limit of detection): Bld
CCCCCCCCCCCC(c1ccc(OC)cc1)c1c(O)c2ccccc2oc1=O (stereo not given)		100 nM		
CCCCCCCCCCCC(c1ccc(C(C)(C)C)cc1)c1c(O)c2ccccc2oc1=O (stereo not given)		22000 nM		
CCC(c1ccccc1)c1c(O)c2ccccc2oc1=O (stereo not given) [PHENPROCOUMON]	12.8 µg/g	200 nM	5.5	Drug uptake [4]: 1.7 µg/g
